Assay results: paper PMC3480357, “Fragment-Hopping-Based Discovery of a Novel Chemical Series of Proto-Oncogene PIM-1 Kinase Inhibitors” (PLoS ONE, 2012)
Where two headings read alike, the source gives them in different places.

What was measured:
Experiment in all cases: ProQinase kinase panel, % inhibition at fixed concentration
Assay type in all cases: biochemical
[1] = target: AKT1 (Homo sapiens, UniProt P31749); details: read-out: AKT1 percentage of inhibition
Protocol: (§1) Once compounds 7 and 8 were synthesized, a pairwise comparison was performed to strictly evaluate the real impact of this fragment-hopping where imidazopyridazine is replaced by triazolopyridine.

[2] = target: T1, ARK5 (Homo sapiens, UniProt O60285)
T1 sequence (O60285 1-661): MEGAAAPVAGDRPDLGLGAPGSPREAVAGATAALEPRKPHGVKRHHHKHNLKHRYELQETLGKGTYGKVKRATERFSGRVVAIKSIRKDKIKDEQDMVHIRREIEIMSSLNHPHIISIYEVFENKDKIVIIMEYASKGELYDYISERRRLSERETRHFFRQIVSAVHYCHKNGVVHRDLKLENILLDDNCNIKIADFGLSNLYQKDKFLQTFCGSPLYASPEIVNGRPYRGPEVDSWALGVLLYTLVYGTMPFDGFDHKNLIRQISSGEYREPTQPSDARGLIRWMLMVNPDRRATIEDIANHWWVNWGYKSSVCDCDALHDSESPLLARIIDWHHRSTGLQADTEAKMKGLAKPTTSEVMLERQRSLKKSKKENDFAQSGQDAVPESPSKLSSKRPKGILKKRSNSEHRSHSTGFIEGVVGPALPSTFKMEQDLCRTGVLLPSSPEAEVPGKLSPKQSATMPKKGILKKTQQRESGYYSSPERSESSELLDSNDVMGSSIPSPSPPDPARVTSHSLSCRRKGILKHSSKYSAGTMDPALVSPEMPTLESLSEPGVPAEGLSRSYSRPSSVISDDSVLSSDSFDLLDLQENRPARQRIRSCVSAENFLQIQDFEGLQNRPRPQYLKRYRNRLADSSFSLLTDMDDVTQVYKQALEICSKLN
Protocol: as §1

[3] = target: B-RAF-V600E (Homo sapiens, UniProt P15056, V600E)
Protocol: as §1

[4] = target: CK1-α1 (Homo sapiens, UniProt P48729); details: for inhibition at 10 µM: inhibitor at 10 µM
Protocol: as §1

[5] = target: DYRK1A (Homo sapiens, UniProt Q13627); details: for inhibition at 10 µM: inhibitor at 10 µM
Protocol: as §1

[6] = target: EGF-R (Homo sapiens, UniProt P00533)
Protocol: as §1

[7] = target: FGF-R1 (Homo sapiens, UniProt P11362); details: for inhibition at 10 µM: inhibitor at 10 µM
Protocol: as §1

[8] = target: IGF1-R (Homo sapiens, UniProt P08069); details: read-out: IGF1-R percentage of inhibition
Protocol: as §1

[9] = target: JAK2 (Homo sapiens, UniProt O60674); details: average of two data points, read-out: JAK2 percentage of inhibition; for inhibition at 10 µM: inhibitor at 10 µM
Protocol: as §1

[10] = target: MET (Homo sapiens, UniProt P08581); details: read-out: MET percentage of inhibition
Protocol: as §1

[11] = target: T2, MST1 (Homo sapiens, UniProt Q13043); details: for inhibition at 10 µM: inhibitor at 10 µM
T2 sequence (Q13043 1-487): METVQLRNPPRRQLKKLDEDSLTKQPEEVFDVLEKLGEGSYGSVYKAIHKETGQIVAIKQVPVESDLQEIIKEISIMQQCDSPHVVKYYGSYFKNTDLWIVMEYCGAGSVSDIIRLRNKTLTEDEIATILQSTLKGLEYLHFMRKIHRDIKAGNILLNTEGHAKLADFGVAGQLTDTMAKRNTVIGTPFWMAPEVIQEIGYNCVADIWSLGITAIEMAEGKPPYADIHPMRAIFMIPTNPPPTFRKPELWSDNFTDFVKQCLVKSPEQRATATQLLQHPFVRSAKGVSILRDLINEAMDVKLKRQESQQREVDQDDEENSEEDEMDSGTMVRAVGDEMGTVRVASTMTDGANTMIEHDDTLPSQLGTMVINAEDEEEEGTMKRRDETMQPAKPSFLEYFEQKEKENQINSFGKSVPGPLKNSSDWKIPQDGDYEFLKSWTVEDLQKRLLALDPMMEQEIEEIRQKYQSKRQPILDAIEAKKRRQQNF
Protocol: as §1

[12] = target: PAK1 (Homo sapiens, UniProt Q13153); details: read-out: PAK1 percentage of inhibition
Protocol: as §1

[13] = target: PDGFR-α (Homo sapiens, UniProt P16234)
Protocol: as §1

[14] = target: RPS6KA1 (Homo sapiens, UniProt Q15418)
Protocol: as §1

[15] = target: T3, SGK1 (Homo sapiens, UniProt O00141); details: for inhibition at 10 µM: inhibitor at 10 µM
T3 sequence (O00141 1-431): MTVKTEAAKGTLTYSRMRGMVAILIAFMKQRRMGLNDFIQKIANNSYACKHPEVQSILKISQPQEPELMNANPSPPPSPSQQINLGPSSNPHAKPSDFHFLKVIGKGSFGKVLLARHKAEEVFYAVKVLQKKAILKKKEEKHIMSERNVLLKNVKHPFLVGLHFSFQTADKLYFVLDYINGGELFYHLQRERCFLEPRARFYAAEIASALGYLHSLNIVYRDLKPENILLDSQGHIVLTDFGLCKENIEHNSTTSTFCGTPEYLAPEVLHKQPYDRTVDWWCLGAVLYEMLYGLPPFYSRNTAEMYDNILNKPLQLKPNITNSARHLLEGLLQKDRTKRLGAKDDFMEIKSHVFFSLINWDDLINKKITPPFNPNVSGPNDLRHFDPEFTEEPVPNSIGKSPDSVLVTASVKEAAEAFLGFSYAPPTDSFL
Protocol: as §1

[16] = average of two data points, read-out: CK1-α1 percentage of inhibition
[17] = average of two data points, read-out: DYRK1A percentage of inhibition
[18] = average of two data points, read-out: FGF-R1 percentage of inhibition
[19] = average of two data points, read-out: MST1 percentage of inhibition
[20] = average of two data points, read-out: SGK1 percentage of inhibition
[21] = inhibitor at 10 µM, average of two data points
[22] = compound 7 vs compound 1, 10 µM
[23] = inhibitor at 5 µM, average of two data points
[24] = compound 8 (5 µM) versus compound 3 (10 µM)
[25] = compound 8 (5 µM) vs compound 3 (10 µM)

Sequence of MET (P08581 25-1390): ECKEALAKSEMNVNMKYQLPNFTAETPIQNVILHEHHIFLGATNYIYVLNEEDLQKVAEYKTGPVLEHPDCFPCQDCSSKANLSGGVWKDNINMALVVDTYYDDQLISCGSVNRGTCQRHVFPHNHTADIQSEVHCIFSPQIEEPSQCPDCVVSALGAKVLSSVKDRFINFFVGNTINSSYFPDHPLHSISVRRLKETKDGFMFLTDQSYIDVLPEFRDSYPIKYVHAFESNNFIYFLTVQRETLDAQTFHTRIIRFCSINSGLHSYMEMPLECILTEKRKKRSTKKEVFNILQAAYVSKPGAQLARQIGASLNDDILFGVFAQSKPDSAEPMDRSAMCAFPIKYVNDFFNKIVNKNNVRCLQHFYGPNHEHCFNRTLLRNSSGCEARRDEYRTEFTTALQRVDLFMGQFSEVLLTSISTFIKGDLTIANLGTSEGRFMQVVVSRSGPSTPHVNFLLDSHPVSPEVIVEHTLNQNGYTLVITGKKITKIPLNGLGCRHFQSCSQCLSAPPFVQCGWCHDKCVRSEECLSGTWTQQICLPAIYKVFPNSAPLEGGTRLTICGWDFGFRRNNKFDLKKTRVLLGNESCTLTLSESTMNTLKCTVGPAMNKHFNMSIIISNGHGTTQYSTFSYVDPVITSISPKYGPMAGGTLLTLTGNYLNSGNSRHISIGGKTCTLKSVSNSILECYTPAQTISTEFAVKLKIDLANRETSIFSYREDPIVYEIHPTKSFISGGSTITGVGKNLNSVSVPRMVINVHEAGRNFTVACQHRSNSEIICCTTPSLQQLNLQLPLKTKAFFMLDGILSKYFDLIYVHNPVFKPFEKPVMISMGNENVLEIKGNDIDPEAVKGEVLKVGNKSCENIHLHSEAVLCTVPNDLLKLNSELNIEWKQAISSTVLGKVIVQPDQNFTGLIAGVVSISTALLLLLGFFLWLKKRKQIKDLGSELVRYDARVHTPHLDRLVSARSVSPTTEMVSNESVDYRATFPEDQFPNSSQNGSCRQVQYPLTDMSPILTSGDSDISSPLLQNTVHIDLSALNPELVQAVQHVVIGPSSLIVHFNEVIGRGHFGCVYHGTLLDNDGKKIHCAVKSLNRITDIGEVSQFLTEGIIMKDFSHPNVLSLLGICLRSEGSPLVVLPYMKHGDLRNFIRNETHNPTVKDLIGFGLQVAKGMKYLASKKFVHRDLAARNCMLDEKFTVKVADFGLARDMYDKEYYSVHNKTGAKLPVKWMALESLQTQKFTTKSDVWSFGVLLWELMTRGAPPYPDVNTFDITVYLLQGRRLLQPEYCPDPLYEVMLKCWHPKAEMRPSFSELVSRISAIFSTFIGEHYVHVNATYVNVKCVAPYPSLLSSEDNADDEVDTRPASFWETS
Sequence of B-RAF-V600E (P15056 whole entry V600E): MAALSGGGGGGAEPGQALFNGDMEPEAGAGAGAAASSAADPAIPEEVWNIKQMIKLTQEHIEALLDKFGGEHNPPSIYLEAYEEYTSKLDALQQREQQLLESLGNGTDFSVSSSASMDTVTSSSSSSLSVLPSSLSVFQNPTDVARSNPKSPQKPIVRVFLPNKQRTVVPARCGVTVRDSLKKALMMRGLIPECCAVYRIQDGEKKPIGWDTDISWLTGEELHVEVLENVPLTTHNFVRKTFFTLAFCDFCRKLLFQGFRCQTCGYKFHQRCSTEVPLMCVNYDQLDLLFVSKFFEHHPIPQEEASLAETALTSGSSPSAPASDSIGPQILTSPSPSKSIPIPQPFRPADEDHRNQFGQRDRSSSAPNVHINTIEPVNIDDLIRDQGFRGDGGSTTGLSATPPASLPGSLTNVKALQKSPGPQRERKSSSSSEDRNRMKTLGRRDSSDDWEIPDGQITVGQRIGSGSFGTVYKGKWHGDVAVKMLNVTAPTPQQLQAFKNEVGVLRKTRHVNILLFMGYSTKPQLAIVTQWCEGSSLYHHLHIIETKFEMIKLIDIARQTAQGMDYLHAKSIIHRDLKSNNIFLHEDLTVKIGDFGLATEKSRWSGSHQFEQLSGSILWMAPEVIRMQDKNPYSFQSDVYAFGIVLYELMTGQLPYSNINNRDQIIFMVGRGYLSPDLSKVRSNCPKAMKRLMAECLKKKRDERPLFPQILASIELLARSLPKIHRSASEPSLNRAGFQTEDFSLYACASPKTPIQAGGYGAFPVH
Sequence of FGF-R1 (P11362 22-822, species assumed): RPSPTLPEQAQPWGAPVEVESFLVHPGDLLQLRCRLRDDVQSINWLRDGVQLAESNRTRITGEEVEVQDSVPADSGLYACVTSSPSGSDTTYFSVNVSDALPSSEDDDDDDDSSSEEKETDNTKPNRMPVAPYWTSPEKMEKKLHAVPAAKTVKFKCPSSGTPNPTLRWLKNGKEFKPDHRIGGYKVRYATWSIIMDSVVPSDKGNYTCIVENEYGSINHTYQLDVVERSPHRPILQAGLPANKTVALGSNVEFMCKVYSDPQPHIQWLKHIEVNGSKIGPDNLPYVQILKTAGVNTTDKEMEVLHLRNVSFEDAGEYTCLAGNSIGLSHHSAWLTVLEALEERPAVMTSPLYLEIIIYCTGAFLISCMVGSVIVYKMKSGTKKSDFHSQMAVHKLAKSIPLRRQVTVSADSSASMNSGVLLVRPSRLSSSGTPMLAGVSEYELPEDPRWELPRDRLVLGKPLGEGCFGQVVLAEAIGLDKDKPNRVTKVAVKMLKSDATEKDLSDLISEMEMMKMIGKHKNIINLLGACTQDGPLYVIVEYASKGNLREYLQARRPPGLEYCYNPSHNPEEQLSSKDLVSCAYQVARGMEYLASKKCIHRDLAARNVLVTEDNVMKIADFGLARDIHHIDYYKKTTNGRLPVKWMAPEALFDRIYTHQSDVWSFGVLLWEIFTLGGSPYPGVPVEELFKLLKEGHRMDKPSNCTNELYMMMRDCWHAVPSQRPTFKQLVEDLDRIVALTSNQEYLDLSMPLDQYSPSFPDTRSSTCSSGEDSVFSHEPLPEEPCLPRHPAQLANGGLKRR
Sequence of IGF1-R (P08069 31-1367, species assumed): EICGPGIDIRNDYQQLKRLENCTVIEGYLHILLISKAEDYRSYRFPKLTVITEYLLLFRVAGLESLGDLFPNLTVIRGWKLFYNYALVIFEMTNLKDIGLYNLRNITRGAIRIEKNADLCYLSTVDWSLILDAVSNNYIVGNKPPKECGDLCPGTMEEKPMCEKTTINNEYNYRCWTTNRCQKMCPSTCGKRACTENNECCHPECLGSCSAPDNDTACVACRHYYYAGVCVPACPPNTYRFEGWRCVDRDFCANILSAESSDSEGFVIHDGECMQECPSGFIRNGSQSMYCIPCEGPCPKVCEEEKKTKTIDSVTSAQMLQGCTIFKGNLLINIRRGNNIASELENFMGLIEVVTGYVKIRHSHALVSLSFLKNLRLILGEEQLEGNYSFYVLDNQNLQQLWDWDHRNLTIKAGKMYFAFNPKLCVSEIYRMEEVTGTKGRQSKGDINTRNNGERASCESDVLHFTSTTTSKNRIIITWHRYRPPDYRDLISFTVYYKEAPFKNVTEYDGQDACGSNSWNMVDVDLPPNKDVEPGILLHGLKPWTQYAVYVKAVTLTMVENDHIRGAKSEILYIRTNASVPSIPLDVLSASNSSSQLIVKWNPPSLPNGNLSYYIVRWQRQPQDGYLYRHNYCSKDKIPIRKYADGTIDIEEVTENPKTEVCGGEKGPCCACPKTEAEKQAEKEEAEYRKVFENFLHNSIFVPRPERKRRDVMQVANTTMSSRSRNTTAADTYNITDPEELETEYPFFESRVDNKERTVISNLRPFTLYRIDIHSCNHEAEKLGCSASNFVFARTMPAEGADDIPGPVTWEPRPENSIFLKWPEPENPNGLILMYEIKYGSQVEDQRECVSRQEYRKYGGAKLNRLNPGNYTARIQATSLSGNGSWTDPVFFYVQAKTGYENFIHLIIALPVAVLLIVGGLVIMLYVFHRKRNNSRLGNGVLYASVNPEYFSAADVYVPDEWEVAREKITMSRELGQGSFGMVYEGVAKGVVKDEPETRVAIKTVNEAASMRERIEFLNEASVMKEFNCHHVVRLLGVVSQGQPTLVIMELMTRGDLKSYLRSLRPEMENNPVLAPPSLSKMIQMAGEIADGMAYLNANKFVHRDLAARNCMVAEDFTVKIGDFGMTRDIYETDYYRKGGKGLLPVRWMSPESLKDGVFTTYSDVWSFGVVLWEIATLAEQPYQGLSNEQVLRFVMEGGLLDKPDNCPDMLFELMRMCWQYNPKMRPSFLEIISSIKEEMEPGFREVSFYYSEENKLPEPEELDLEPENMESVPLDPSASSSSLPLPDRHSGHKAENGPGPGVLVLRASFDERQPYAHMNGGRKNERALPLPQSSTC
Sequence of RPS6KA1 (Q15418 whole entry, species assumed): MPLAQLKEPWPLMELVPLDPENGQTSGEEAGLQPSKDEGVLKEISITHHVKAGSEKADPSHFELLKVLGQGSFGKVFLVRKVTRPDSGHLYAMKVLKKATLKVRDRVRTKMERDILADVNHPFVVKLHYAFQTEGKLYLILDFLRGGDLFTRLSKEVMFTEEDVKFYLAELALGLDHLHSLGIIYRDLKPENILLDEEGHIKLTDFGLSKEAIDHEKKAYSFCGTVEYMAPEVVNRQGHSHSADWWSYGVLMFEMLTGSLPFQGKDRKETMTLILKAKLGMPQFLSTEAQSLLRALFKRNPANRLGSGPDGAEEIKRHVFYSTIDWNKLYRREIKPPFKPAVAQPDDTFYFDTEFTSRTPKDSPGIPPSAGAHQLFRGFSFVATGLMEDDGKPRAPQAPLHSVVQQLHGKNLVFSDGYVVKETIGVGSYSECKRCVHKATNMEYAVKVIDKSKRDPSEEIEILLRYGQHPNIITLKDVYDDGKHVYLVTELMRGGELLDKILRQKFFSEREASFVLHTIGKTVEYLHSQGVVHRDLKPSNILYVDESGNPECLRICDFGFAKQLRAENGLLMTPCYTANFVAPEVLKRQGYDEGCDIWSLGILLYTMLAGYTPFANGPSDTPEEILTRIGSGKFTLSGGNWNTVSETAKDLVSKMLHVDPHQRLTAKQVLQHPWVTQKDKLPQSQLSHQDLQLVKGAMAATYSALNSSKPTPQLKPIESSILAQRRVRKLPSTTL

CN1CCC(CNc2ccc3ncc(-c4cccc(OC(F)(F)F)c4)n3n2)CC1 [Compound 3, reference compound]
inhibition at 10 µM [1]: 0% | inhibition at 10 µM ([2]; read-out: ARK5 percentage of inhibition): 42% | inhibition at 10 µM ([3]; read-out: B-RAF-V600E percentage of inhibition): 41% | inhibition at 10 µM [4, 16]: 0% | inhibition at 10 µM [5, 17]: 19% | inhibition at 10 µM ([6]; read-out: EGF-R percentage of inhibition): 32% | inhibition at 10 µM [7, 18]: 65% | inhibition at 10 µM [8]: 53% | inhibition at 10 µM [9]: 3% | inhibition at 10 µM [10]: 12% | inhibition at 10 µM [11, 19]: 60% | inhibition at 5 µM [12]: 8% | inhibition at 10 µM ([13]; read-out: PDGFR-α percentage of inhibition): 92% | inhibition at 10 µM ([14]; read-out: RPS6KA1 percentage of inhibition): 48% | inhibition at 10 µM [15, 20]: 55%

Oc1ccc(-n2nnc3ccc(NCc4ccc(F)cc4)nc32)cc1 [Compound 7, 4-[5-(4-Fluoro-benzylamino)-[1], [2], [3]triazolo[4,5-b]pyridin-3-yl]-phenol]
inhibition at 10 µM [1, 21]: 0% | ARK5 improvement in percentage of inhibition [2, 22]: c (This designation indicates that the improvement in percentage of inhibition was equal or greater than 50%) | inhibition at 10 µM ([2]; inhibitor at 10 µM, average of two data points, read-out: ARK5 percentage of inhibition): 13% | B-RAF-V600E improvement in percentage of inhibition [3, 22]: b (This designation indicates that the improvement in percentage of inhibition was equal or greater than 25%) | inhibition at 10 µM ([3]; inhibitor at 10 µM, average of two data points, read-out: B-RAF-V600E percentage of inhibition): 8% | CK1-α1 improvement in percentage of inhibition [4, 22]: b (This designation indicates that the improvement in percentage of inhibition was equal or greater than 25%) | inhibition at 10 µM [4, 16]: 8% | DYRK1A reduction of percentage of inhibition ([5]; compound 7 compared to compound 1, 10 µM): more than 25% | DYRK1A improvement in percentage of inhibition [5, 22]: b (This designation indicates that the improvement in percentage of inhibition was equal or greater than 25%) | inhibition at 10 µM [5, 17]: > 70% | EGF-R improvement in percentage of inhibition [6, 22]: b (This designation indicates that the improvement in percentage of inhibition was equal or greater than 25%) | inhibition at 10 µM ([6]; inhibitor at 10 µM, average of two data points, read-out: EGF-R percentage of inhibition): 8% | FGF-R1 improvement in percentage of inhibition [7, 22]: c (This designation indicates that the improvement in percentage of inhibition was equal or greater than 50%) | inhibition at 10 µM [7, 18]: 19% | inhibition at 10 µM [8, 21]: 9% | inhibition at 10 µM [9]: 30% | inhibition at 10 µM [10, 21]: 21% | MST1 improvement in percentage of inhibition [11, 22]: c (This designation indicates that the improvement in percentage of inhibition was equal or greater than 50%) | inhibition at 10 µM [11, 19]: 29% | inhibition at 10 µM [12, 21]: 5% | PDGFR-α improvement in percentage of inhibition [13, 22]: b (This designation indicates that the improvement in percentage of inhibition was equal or greater than 25%) | inhibition at 10 µM ([13]; inhibitor at 10 µM, average of two data points, read-out: PDGFR-α percentage of inhibition): 53% | RPS6KA1 improvement in percentage of inhibition [14, 22]: c (This designation indicates that the improvement in percentage of inhibition was equal or greater than 50%) | inhibition at 10 µM ([14]; inhibitor at 10 µM, average of two data points, read-out: RPS6KA1 percentage of inhibition): 45% | SGK1 improvement in percentage of inhibition [15, 22]: c (This designation indicates that the improvement in percentage of inhibition was equal or greater than 50%) | inhibition at 10 µM [15, 20]: 12%

CN1CCC(CNc2ccc3nnn(-c4cccc(OC(F)(F)F)c4)c3n2)CC1 [Compound 8, (1-Methyl-piperidin-4-ylmethyl)-[3-(3-trifluoromethoxy-phenyl)-3H-[1], [2], [3]triazolo[4,5-b]pyridin-5-yl]-amine]
inhibition at 5 µM [1, 23]: 0% | inhibition at 5 µM ([2]; inhibitor at 5 µM, average of two data points, read-out: ARK5 percentage of inhibition): 18% | inhibition at 5 µM ([3]; inhibitor at 5 µM, average of two data points, read-out: B-RAF-V600E percentage of inhibition): 10% | inhibition at 5 µM ([4]; inhibitor at 5 µM, average of two data points, read-out: CK1-α1 percentage of inhibition): 8% | inhibition at 5 µM ([5]; inhibitor at 5 µM, average of two data points, read-out: DYRK1A percentage of inhibition): 3% | inhibition at 5 µM ([6]; inhibitor at 5 µM, average of two data points, read-out: EGF-R percentage of inhibition): 18% | inhibition at 5 µM ([7]; inhibitor at 5 µM, average of two data points, read-out: FGF-R1 percentage of inhibition): 16% | inhibition at 5 µM [8, 23]: 25% | inhibition at 5 µM ([9]; inhibitor at 5 µM): 0% | inhibition at 5 µM [10, 23]: 6% | inhibition at 5 µM ([11]; inhibitor at 5 µM, average of two data points, read-out: MST1 percentage of inhibition): 20% | inhibition at 5 µM [12, 23]: 2% | PDGFR-α increment in percentage of inhibition [13, 24]: > 50% | PDGFR-α improvement in percentage of inhibition [13, 25]: c (This designation indicates that the improvement in percentage of inhibition was greater than 50%) | inhibition at 5 µM ([13]; inhibitor at 5 µM, average of two data points, read-out: PDGFR-α percentage of inhibition): 20% | inhibition at 5 µM ([14]; inhibitor at 5 µM, average of two data points, read-out: RPS6KA1 percentage of inhibition): 37% | SGK1 increment in percentage of inhibition [15, 24]: > 50% | SGK1 improvement in percentage of inhibition [15, 25]: c (This designation indicates that the improvement in percentage of inhibition was greater than 50%) | inhibition at 5 µM ([15]; inhibitor at 5 µM, average of two data points, read-out: SGK1 percentage of inhibition): 0%
